Assay results taken from patent publication EP1048669A1, “CARBAPENEM DERIVATIVES” (priority 1997, dated 1999).
pIC50: −log10 of the molar value. Counter-ions that a name gives are not always drawn. Like-named read-outs stand apart in the source and are kept apart here.

Experiments:
[1] = test system: E. coli NIHJ JC2; test: In vitro antibacterial activity, agar plate dilution method (MIC); type: cell-based; conditions: Escherichia coli, read-out: Minimum growth inhibitory concentrations (MIC)
Protocol: (§1) A Mueller Hinton agar (MH agar) was inoculated with a platinum loop quantity (the quantity of inoculated bacterium: 10^6 CFU/ml) of each test bacterial strain which had been cultured overnight in Mueller Hinton broth. The culture medium contained an antibacterial agent at a varied concentration. After a culture at 37°C for 16 hours, the minimum growth inhibitory concentration (MIC: µg/ml) of the compound of this invention was measured. When MRSA was used as the test strain, a medium containing 2% sodium chloride was used as the test medium in accordance with the above-mentioned agar plate dilution method, and the minimum growth inhibitory concentration (MIC: µg/ml) of the compound of this invention was measured under culture conditions of 35°C, 48 hours.

[2] = test system: P. aeruginosa IFO-3445; test: as above; type: cell-based; conditions: Pseudomonas aeruginosa, read-out: Minimum growth inhibitory concentrations (MIC)
Protocol: as §1

[3] = test system: MRSA BB6294; test: In vitro antibacterial activity, agar plate dilution method (MIC), MRSA conditions; type: cell-based, methicillin-resistant Staphylococcus aureus; conditions: Staphylococcus aureus, read-out: Minimum growth inhibitory concentrations (MIC)
Protocol: as §1

[4] = test system: male SD rats; test: Toxicity test on the central nervous system (administration to the right ventricle of the brain); type: in vivo; conditions: observed thirty minutes
Source text: A chronic guide cannula was inserted into the right ventricle of the brain of 7-weeks old male SD rats (n = 5) and immobilized with a dental resin. […] After the administration, behavior of the animal was visually examined in an observing cage for thirty minutes.

[5] = In vivo stability test (TLC bioautography of urine); set-up: species or system rhesus monkey
Protocol: The compound of Example 1 was used as a representative compound, and the compound of Example 139B of Document A was used as a comparative compound. A test agent (10 mg/kg) was intravenously administered to 4-years old male rhesus monkey (body weight 5.48 kg) over a period of 5 minutes. The urine was collected over a period of 0-1 hour and over a period of 1-2 hours, both after the administration. The urine samples were stored at an ice-cooled temperature. A TLC plate (silica gel 60F-254, manufactured by Merck Co.) which had been activated just before use at 120°C for 30 minutes and spotted with 4 µl of each urine sample, was developed with a solvent in a closed vessel (developing solvent: CH3CN/H2O/CH3COOH/25% NH4OH = 45:30:6:2; pH 5.3). After completion of the development, the TLC plate was taken out of the vessel, and dried. An AM-1 medium (manufactured by Difco Co.) containing a test strain (B. subtilis ATCC 12432) was contacted with the silica gel surface of the TLC plate at ambient temperature for 30 minutes. After stripping off the TLC plate, the medium was cultured at 37°C overnight. Rf value of a clear zone formed by the growth inhibition of test strain was determined. As control, the test compound was dissolved in 10 mmol MOPS buffer (pH 7) at the concentration of 250 µg/ml, and 2 µl of this solution was spotted on a TLC plate.

[6] = test system: male ICR mice; test: Acute toxicity test (single intravenous administration); type: in vivo; conditions: observed over five days
Protocol: The compound of Example 24 was used as a representative compound. According to "Explanation Book for GLP Standard and Toxicity Test Guideline" (supervised by Department of Examination, Bureau of Pharmacy, Ministry of Health and Welfare; published by Yakuji Shimpou-sha), a test compound was diluted with distilled water for injection use until the agent concentration reached 60.75 mg/ml and once administered intravenously to the tail vein of 6-weeks old male ICR mice at an administration rate of 1 ml/min. After the administration, the state of death and the general motility were observed over five days.

[7] = test system: Pseudomonas aeruginosa; conditions: especially against Pseudomonas aeruginosa; cited from earlier work
[8] = molecular target: T1, Metallo-β-lactamase encoded by plasmid pMS350 (Serratia marcescens, UniProt P52699); test: β-Lactamase inhibition test (Nitrocefin substrate); type: biochemical, Pseudomonas aeruginosa GN17203; conditions: Nitrocefin 37.5 µg/ml, 30°C for 15 minutes, Zn2+ 100 µM, MOPS buffer
T1 construct: made in house
Protocol: Metallo-β-lactamase encoded by plasmid pMS350 originated from Pseudomonas aeruginosa GN17203 was purified and used for this test. The enzyme previously gave a single protein band on SDS/PAGE (specific activity: 70 U/mg protein). The enzymatic activity (U) was measured by reacting it with 100 µM of imipenem dissolved in 10 mM 3-morpholinopropanesulfonate buffer (pH 7.0) (hereinafter referred to as MOPS buffer) containing 100 µM zinc chloride, and the quantity of enzyme capable of hydrolyzing 1 µM of imipenem per one minute at a reaction temperature of 30°C was defined as 1 U.
As the screening substrate of this test, Nitrocefin®, OXOID) was used. In each well of a 96 well plate, 1 µl of a test agent dissolved in 10 mM MOPS buffer and 25 µl of metallo-β-lactamase preparation (enzymatic activity: 3-6 mU/ml) were mixed, and then 75 µl of 50 µg/ml Nitrocefin® was added and mixed to create a final substrate concentration of 37.5 µg/ml. The enzymic reaction was carried out at 30°C for 15 minutes and followed by measuring the quantity of hydrolyzed Nitrocefin™ at a wavelength of 492 nm by means of a microplate reader. In this screening system, the operation was carried out in the presence of Zn^2+ (100 µM) in order to eliminate the inhibitory effect due to chelating action. […]

[9] = 400 µg/rat into right ventricle of the brain
[10] = mouse, 500 mg/kg intravenously once
[11] = mouse, 1,000 mg/kg intravenously once
[12] = mouse, 1,500 mg/kg intravenously once
[13] = 200 µg/rat into right ventricle of the brain

T1 sequence (P52699 19-246): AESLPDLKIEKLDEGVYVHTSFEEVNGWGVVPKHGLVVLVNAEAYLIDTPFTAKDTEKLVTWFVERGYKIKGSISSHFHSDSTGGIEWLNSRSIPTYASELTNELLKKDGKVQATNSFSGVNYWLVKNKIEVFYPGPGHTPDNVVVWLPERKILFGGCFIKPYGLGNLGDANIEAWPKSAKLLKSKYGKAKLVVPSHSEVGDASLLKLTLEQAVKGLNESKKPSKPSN

Q: For `C[C@@H](O)[C@H]1C(=O)N2C(C(=O)O)=C(S[C@@H]3CN[C@@H](c4csc(CN)c4)C3)[C@H](C)[C@H]12.Cl` [Example 32, (1R,5S,6S)-2-[(3S,5R)-5-(2-aminomethyl-4-thienyl)-pyrrolidin-3-ylthio]-6-[(R)-1-hydroxyethyl]-1-methyl-1-carbapen-2-em-3-carboxylic acid hydrochloride], which MIC ([1]; NIHJJC2, E. coli NIHJ JC2, MH agar, 10^6 CFU/ml, 37°C for 16 hours) is on record?
A: 0.025 µg/mL

Q: What about the MIC ([2]; IFO3445, P. aeruginosa IFO-3445, MH agar, 10^6 CFU/ml, 37°C for 16 hours) of the same molecule?
A: 0.39 µg/mL

Q: What about the MIC ([3]; MRSA BB6294, medium containing 2% sodium chloride, 35°C, 48 hours) of the same molecule?
A: 3.13 µg/mL

Q: With `CNCc1ccc([C@H]2C[C@H](SC3=C(C(=O)O)N4C(=O)[C@H]([C@@H](C)O)[C@H]4[C@H]3C)CN2)cc1.Cl` [Example 1, (1R,5S,6S)-2-[(3S,5R)-5-[4-N-methylaminomethylphenyl]-pyrrolidin-3-ylthio]-6-[(R)-1-hydroxyethyl]-1-methyl-1-carbapen-2-em-3-carboxylic acid hydrochloride] as the molecule, how does the “Number of convulsed cases” value [4, 9] read?
A: 0/5

Q: And the “Number of dead cases” value [4, 9]?
A: 0/5

Q: And the “Rf value, Control” value ([5]; control: test compound in 10 mmol MOPS buffer (pH 7), 250 µg/ml, spotted on TLC plate, clear zone with B. subtilis ATCC 12432)?
A: 0.40

Q: And the “Rf value, Accumulated urine during 0-1 hr after administration” value ([5]; rhesus monkey, 10 mg/kg intravenously, urine 0-1 hr, TLC clear zone with B. subtilis ATCC 12432)?
A: 0.40

Q: What about the “Rf value, Accumulated urine during 1-2 hrs after administration” value ([5]; rhesus monkey, 10 mg/kg intravenously, urine 1-2 hrs, TLC clear zone with B. subtilis ATCC 12432) of the same molecule?
A: 0.40

Q: Which “Motility and general symptoms” value [6, 10] does the source give for `C[C@@H](O)[C@H]1C(=O)N2C(C(=O)O)=C(S[C@@H]3CN[C@@H](c4ccc(C(N)CC(N)=O)cc4)C3)[C@H](C)[C@H]12.Cl` (stereo partly drawn) [Example 24, (1R,5S,6S)-2-[(3S,5R)-5-[4-(1-amino-2-carbamoylethyl)-phenyl]pyrrolidin-3-ylthio]-6-[(R)-1-hydroxyethyl]-1-methyl-1-carbapen-2-em-3-carboxylic acid hydrochloride] here?
A: No abnormality

Q: And the “Number of alive animals” value [6, 10]?
A: 2/2

Q: And the “Motility and general symptoms” value [6, 11]?
A: No abnormality

Q: What about the “Number of alive animals” value [6, 11] of the same molecule?
A: 5/5

Q: What about the “Motility and general symptoms” value [6, 12] of the same molecule?
A: No abnormality

Q: What about the “Number of alive animals” value [6, 12] of the same molecule?
A: 5/5

Q: With `C[C@@H](O)[C@H]1C(=O)N2C(C(=O)O)=C(SCCNC=N)C[C@H]12.O` [Imipenem, (5R,6S)-3-[2-(formimidoylamino)-ethylthio]-6-[(R)-1-hydroxyethyl]-7-oxo-1-azabicyclo[3.2.0]hepta-2-ene-2-carboxylic acid monohydrate] as the molecule, how does the “enhanced antibacterial activity compared to the parent antibiotic, thienamycin” value [7] read?
A: 2-4 times

Q: With `C=CCOC(=O)N(C)Cc1ccc([C@H]2C[C@H](SC(C)=O)CN2C(=O)OCC=C)cc1` [Compound of Referential. Ex. 1, (2R,4S)-4-Acetylthio-1-allyloxycarbonyl-2-(4-N-allyloxycarbonyl-N-methylaminomethyl)phenylpyrrolidine] as the molecule, how does the pIC50 [8] read?
A: > 7.00

Q: Which results are given for `C[C@@H](N)c1ccc([C@H]2C[C@H](SC3=C(C(=O)O)N4C(=O)[C@H]([C@@H](C)O)[C@H]4[C@H]3C)CN2)cc1` [Example 15, (1R,5S,6S)-2-[(3S,5R)-5-[4-[(1R)-aminoethyl]phenyl]-pyrrolidin-3-ylthio]-6-[(R)-1-hydroxyethyl]-1-methyl-1-carbapen-2-em-3-carboxylic acid hydrochloride]?
A: MIC ([1]; NIHJJC2, 16 h): 0.025 µg/mL; MIC ([2]; IFO3445, 16 h): 0.2 µg/mL; MIC ([3]; MRSA, 48 h): 3.13 µg/mL; Number of convulsed cases [4, 13]: 0/5; Number of dead cases [4, 13]: 0/5

Q: With `C[C@H](N)c1ccc([C@H]2C[C@H](SC3=C(C(=O)O)N4C(=O)[C@H]([C@@H](C)O)[C@H]4[C@H]3C)CN2)cc1` [Example 14, (1R,5S,6S)-2-[(3S,5R)-5-[4-[(1S)-aminoethyl]phenyl]-pyrrolidin-3-ylthio]-6-[(R)-1-hydroxyethyl]-1-methyl-1-carbapen-2-em-3-carboxylic acid hydrochloride] as the molecule, how does the MIC ([1]; NIHJJC2, 16 h) read?
A: 0.025 µg/mL

Q: And the MIC ([2]; IFO3445, 16 h)?
A: 0.1 µg/mL

Q: And the MIC ([3]; MRSA, 48 h)?
A: 3.13 µg/mL

Q: And the “Number of convulsed cases” value [4, 13]?
A: 0/5

Q: And the “Number of dead cases” value [4, 13]?
A: 0/5
